{"source": "the NIST ThermoML archive (doi:10.1016/j.tca.2017.12.006)", "details": "Liquid, Transpiration method", "note": "± gives the expanded uncertainty stated by the source.", "data": [{"compound": "COC(=O)CCC(C)=O", "note": "[methyl levulinate]", "values": [{"measurement": "vapor or sublimation pressure", "setting": "293.5 K", "value": "0.0302 ± 0.002", "unit": "kPa"}, {"measurement": "vapor or sublimation pressure", "setting": "298.5 K", "value": "0.0442 ± 0.0028", "unit": "kPa"}, {"measurement": "vapor or sublimation pressure", "setting": "303.3 K", "value": "0.0638 ± 0.004", "unit": "kPa"}, {"measurement": "vapor or sublimation pressure", "setting": "308.5 K", "value": "0.0929 ± 0.0058", "unit": "kPa"}, {"measurement": "vapor or sublimation pressure", "setting": "313.4 K", "value": "0.1359 ± 0.0085", "unit": "kPa"}, {"measurement": "vapor or sublimation pressure", "setting": "318.3 K", "value": "0.1837 ± 0.012", "unit": "kPa"}, {"measurement": "vapor or sublimation pressure", "setting": "323.2 K", "value": "0.2626 ± 0.017", "unit": "kPa"}, {"measurement": "vapor or sublimation pressure", "setting": "328.2 K", "value": "0.3572 ± 0.022", "unit": "kPa"}, {"measurement": "vapor or sublimation pressure", "setting": "333.2 K", "value": "0.501 ± 0.03", "unit": "kPa"}, {"measurement": "vapor or sublimation pressure", "setting": "338.2 K", "value": "0.659 ± 0.04", "unit": "kPa"}, {"measurement": "vapor or sublimation pressure", "setting": "343.1 K", "value": "0.878 ± 0.055", "unit": "kPa"}, {"measurement": "vapor or sublimation pressure", "setting": "348.2 K", "value": "1.142 ± 0.072", "unit": "kPa"}, {"measurement": "vapor or sublimation pressure", "setting": "353.2 K", "value": "1.473 ± 0.091", "unit": "kPa"}]}, {"compound": "CCOC(=O)CCC(C)=O", "note": "[ethyl levulinate]", "values": [{"measurement": "vapor or sublimation pressure", "setting": "293.5 K", "value": "0.0169 ± 0.0011", "unit": "kPa"}, {"measurement": "vapor or sublimation pressure", "setting": "298.4 K", "value": "0.0253 ± 0.0016", "unit": "kPa"}, {"measurement": "vapor or sublimation pressure", "setting": "303.3 K", "value": "0.0375 ± 0.0023", "unit": "kPa"}, {"measurement": "vapor or sublimation pressure", "setting": "308.3 K", "value": "0.0542 ± 0.0035", "unit": "kPa"}, {"measurement": "vapor or sublimation pressure", "setting": "313.3 K", "value": "0.0795 ± 0.005", "unit": "kPa"}, {"measurement": "vapor or sublimation pressure", "setting": "318.3 K", "value": "0.1129 ± 0.0071", "unit": "kPa"}, {"measurement": "vapor or sublimation pressure", "setting": "323.3 K", "value": "0.1613 ± 0.01", "unit": "kPa"}, {"measurement": "vapor or sublimation pressure", "setting": "328.2 K", "value": "0.2312 ± 0.015", "unit": "kPa"}, {"measurement": "vapor or sublimation pressure", "setting": "333.1 K", "value": "0.3106 ± 0.019", "unit": "kPa"}, {"measurement": "vapor or sublimation pressure", "setting": "338.1 K", "value": "0.415 ± 0.025", "unit": "kPa"}, {"measurement": "vapor or sublimation pressure", "setting": "343.1 K", "value": "0.553 ± 0.035", "unit": "kPa"}, {"measurement": "vapor or sublimation pressure", "setting": "348.8 K", "value": "0.758 ± 0.047", "unit": "kPa"}]}, {"compound": "CCCCOC(=O)CCC(C)=O", "note": "[butyl levulinate]", "values": [{"measurement": "vapor or sublimation pressure", "setting": "298.2 K", "value": "0.00393 ± 0.00026", "unit": "kPa"}, {"measurement": "vapor or sublimation pressure", "setting": "303.2 K", "value": "0.00611 ± 0.00043", "unit": "kPa"}, {"measurement": "vapor or sublimation pressure", "setting": "308.1 K", "value": "0.00895 ± 0.00061", "unit": "kPa"}, {"measurement": "vapor or sublimation pressure", "setting": "313 K", "value": "0.01421 ± 0.00094", "unit": "kPa"}, {"measurement": "vapor or sublimation pressure", "setting": "318 K", "value": "0.01999 ± 0.0013", "unit": "kPa"}, {"measurement": "vapor or sublimation pressure", "setting": "323 K", "value": "0.03006 ± 0.0019", "unit": "kPa"}, {"measurement": "vapor or sublimation pressure", "setting": "327.9 K", "value": "0.0443 ± 0.0028", "unit": "kPa"}, {"measurement": "vapor or sublimation pressure", "setting": "332.8 K", "value": "0.0632 ± 0.004", "unit": "kPa"}, {"measurement": "vapor or sublimation pressure", "setting": "337.8 K", "value": "0.0939 ± 0.006", "unit": "kPa"}, {"measurement": "vapor or sublimation pressure", "setting": "342.8 K", "value": "0.1289 ± 0.008", "unit": "kPa"}, {"measurement": "vapor or sublimation pressure", "setting": "347.8 K", "value": "0.181 ± 0.011", "unit": "kPa"}]}]}
